Positions of bridges follow the written chain, without caps; N, C: chain ends. Non-standard residues stand in square brackets, D forms with d. Residues, ends and D or L forms follow the SMILES beside them. *: point of attachment. Heptanoyl(6-Me) = CC(C)CCCCC(=O)*; X1 = CC[C@H](C)CCCCC(=O)*; Octanoyl = CCCCCCCC(=O)*; Dab = NCC[C@H](N)C(=O)O
Tests used:
[1] = Epithelial lining fluid; assay type: in vivo, Swiss Webster mice; conditions: for Time post dose up to which component could be quantified in ELF: mouse, in vivo
[2] = Serum pharmacokinetics after intravenous administration in mice; conditions: female, ND4 Swiss Webster, mouse, in vivo, 3 mg/kg
[3] = tested on: PA 9019; conditions: PA 9019, MDR bloodstream isolate; previously determined; cited from earlier work
[4] = tested on: Pseudomonas aeruginosa ATCC 27853 (PA 27853); conditions: previously determined; cited from earlier work

## CC(C)CCCCC(=O)N[C@@H](CCN)C(=O)N[C@H](C(=O)N[C@@H](CCN)C(=O)N[C@H]1CCNC(=O)[C@H]([C@@H](C)O)NC(=O)[C@H](CCN)NC(=O)[C@H](CCN)NC(=O)[C@H](CC(C)C)NC(=O)[C@@H](Cc2ccccc2)NC(=O)[C@H](CCN)NC1=O)[C@@H](C)O [PB2, polymyxin B2] ({Heptanoyl(6-Me)}-[Dab]T[Dab][Dab][Dab][dF]L[Dab][Dab]T; lactam 4-C)
[1]
  Time post dose up to which component could be quantified in ELF: up to 2 h

## CC[C@H](C)CCCCC(=O)N[C@@H](CCN)C(=O)N[C@H](C(=O)N[C@@H](CCN)C(=O)N[C@H]1CCNC(=O)[C@H]([C@@H](C)O)NC(=O)[C@H](CCN)NC(=O)[C@H](CCN)NC(=O)[C@H]([C@@H](C)CC)NC(=O)[C@@H](Cc2ccccc2)NC(=O)[C@H](CCN)NC1=O)[C@@H](C)O [ile-PB1, isoleucine-B1] (X1-[Dab]T[Dab][Dab][Dab][dF]I[Dab][Dab]T; lactam 4-C)
[1]
  Time post dose up to which component could be quantified in ELF: up to 2 h

## CCCCCCCC(=O)N[C@@H](CCN)C(=O)N[C@H](C(=O)N[C@@H](CCN)C(=O)N[C@H]1CCNC(=O)[C@H]([C@@H](C)O)NC(=O)[C@H](CCN)NC(=O)[C@H](CCN)NC(=O)[C@H](CC(C)C)NC(=O)[C@@H](Cc2ccccc2)NC(=O)[C@H](CCN)NC1=O)[C@@H](C)O [PB3, polymyxin B3] (Octanoyl-[Dab]T[Dab][Dab][Dab][dF]L[Dab][Dab]T; lactam 4-C)
[1]
  Time post dose up to which component could be quantified in ELF: up to 2 h

## CC[C@H](C)CCCCC(=O)N[C@@H](CCN)C(=O)N[C@H](C(=O)N[C@@H](CCN)C(=O)N[C@H]1CCNC(=O)[C@H]([C@@H](C)O)NC(=O)[C@H](CCN)NC(=O)[C@H](CCN)NC(=O)[C@H](CC(C)C)NC(=O)[C@@H](Cc2ccccc2)NC(=O)[C@H](CCN)NC1=O)[C@@H](C)O [PB1, polymyxin B1] (X1-[Dab]T[Dab][Dab][Dab][dF]L[Dab][Dab]T; lactam 4-C)
[2]
  half-life: 19.2 min
[1]; ELF AUC0–6h, i.v. ca. 3 mg/kg, mice
  AUC ratio (liposome:solution) in epithelial lining fluid: 6.21

## Polymyxin B [PB]
[3]
  MIC: 4 µg/mL
[4]
  MIC: 2 µg/mL

— paper PMC3849129 (International journal of antimicrobial agents, 2013)
